Earlier results as cited in US20070232669A1, “N-phenylbenzotriazolyl c-kit inhibitors” (priority 2006, published 2007).
Where a name gives a salt, the structure may show the parent alone.

Columns and labels:
[1] = system: MO7e human leukemia cells
[2] = system: MO7e human leukemia cells; remark: listed apart in the source

Cc1ccc(NC(=O)c2ccc(CN3CCN(C)CC3)cc2)cc1Nc1nccc(-c2cccnc2)n1 [Gleevec, imatinib mesylate]
Kit ligand-stimulated growth of MO7e human leukemia cells [1]: inhibited | GM-CSF stimulated growth of MO7e human leukemia cells [2]: not affected
